Patent publication US20040214237A1, “DNA encoding SNORF138 and uses thereof” (Synaptic Pharmaceutical Corporation, priority 2002, published 2004)

Columns and labels:
[1] = tested on: CFTR; assay: CFTR currents in Xenopus oocytes expressing CFTR alone (control without receptor); type: cell-based; parameters: dose or concentration left out as unconfirmed; conditions: betamethasone valerate, bullet application, n=4
Method: In the present invention, oocytes are harvested from Xenopus laevis as previously described (Quick and Lester, 1994; Smith et al., 1997). Oocytes were injected with a cocktail of T3-driven hSN138 cDNA, T3-RNA polymerase and dNTP with or without T3-driven CFTR cDNA directly into the cytoplasm as previously described (Geib et al., 2001). After 2 days of incubation at 15° C., dual electrode voltage clamp was performed using 3 M KCl-filled glass microelectrodes with resistances of 1-2 MΩ. Unless otherwise specified, oocytes were voltage-clamped at a holding potential of −80 mV. During recordings, oocytes were bathed in continuously flowing (1-3 ml/min) medium containing 96 mM NaCl, 2 mM KCl, 1.8 mM CaCl2, and 5 mM HEPES, pH 7.5 (ND96 Buffer). Drugs were applied by local perfusion from a […] glass capillary tube at a distance of 0.5 mm from the oocyte. Heterologous expression of GPCRs in Xenopus oocytes has been widely used to determine the identity of signaling pathways activated by agonist stimulation. CFTR channel activity is heavily regulated by the cytosolic levels of cyclic AMP which can be increased by activation of GS-coupled adenylyl cyclase (AC). Therefore, activation of GS-coupled AC pathway is assayed by applying test compound in ND96 solution to oocytes and observing the changes of inward CFTR currents at a holding potential of −80 mV.

[2] = target: T1, hSN138 (human SNORF138 receptor) (Homo sapiens, UniProt Q8TDU6); assay: Activation of CFTR currents in Xenopus oocytes expressing both hSN138 and CFTR (dual electrode voltage clamp); type: cell-based; parameters: dose or concentration left out as unconfirmed; conditions: betamethasone valerate, bullet application, holding potential -80 mV, n=8
T1 construct: expressed in transfected cells; host or cells: Xenopus laevis oocytes (cytoplasmic injection of T3-driven cDNA with T3 RNA polymerase)
T1 sequence (Q8TDU6 1-330): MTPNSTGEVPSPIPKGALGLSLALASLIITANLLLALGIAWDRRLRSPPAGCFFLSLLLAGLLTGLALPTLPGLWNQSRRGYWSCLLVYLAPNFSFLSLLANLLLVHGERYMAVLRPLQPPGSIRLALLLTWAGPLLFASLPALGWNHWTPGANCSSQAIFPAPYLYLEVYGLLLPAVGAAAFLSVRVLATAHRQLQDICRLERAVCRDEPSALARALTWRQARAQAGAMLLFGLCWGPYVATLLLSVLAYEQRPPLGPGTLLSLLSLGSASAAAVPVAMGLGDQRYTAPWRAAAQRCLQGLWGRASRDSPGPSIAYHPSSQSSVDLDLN
Method: Oocytes were injected with a cocktail of T3-driven hSN138 cDNA, T3-RNA polymerase and dNTP with or without T3-driven CFTR cDNA directly into the cytoplasm as previously described (Geib et al., 2001). After 2 days of incubation at 15° C., dual electrode voltage clamp was performed using 3 M KCl-filled glass microelectrodes with resistances of 1-2 MΩ. Unless otherwise specified, oocytes were voltage-clamped at a holding potential of −80 mV. During recordings, oocytes were bathed in continuously flowing (1-3 ml/min) medium containing 96 mM NaCl, 2 mM KCl, 1.8 mM CaCl2, and 5 mM HEPES, pH 7.5 (ND96 Buffer). Drugs were applied by local perfusion from a 10 ml glass capillary tube at a distance of 0.5 mm from the oocyte. […] CFTR channel activity is heavily regulated by the cytosolic levels of cyclic AMP which can be increased by activation of GS-coupled adenylyl cyclase (AC). Therefore, activation of GS-coupled AC pathway is assayed by applying test compound in ND96 solution to oocytes and observing the changes of inward CFTR currents at a holding potential of −80 mV.

changes in CFTR currents [1]: no significant changes | increase of CFTR currents [2]: 9.2±1.9 nA
Compound: CCCCC(=O)O[C@]1(C(=O)CO)[C@@H](C)C[C@H]2[C@@H]3CCC4=CC(=O)C=C[C@]4(C)[C@@]3(F)[C@@H](O)C[C@@]21C [betamethasone valerate, fluoro-11b,17,21-trihydroxy-16b-methylpregna-1,4-diene-3,20-dione 17-valerate]
